From patent US10168342B2, “Lipid probes and uses thereof” (THE SCRIPPS RESEARCH INSTITUTE, priority 2015, dated 2019) come the findings set out here.

Assay [1] deals with T1, AEA-DA lipid probe targets in Neuro2a cells (Mus musculus, UniProt Q62186).
T1 sequence (Q62186 24-172): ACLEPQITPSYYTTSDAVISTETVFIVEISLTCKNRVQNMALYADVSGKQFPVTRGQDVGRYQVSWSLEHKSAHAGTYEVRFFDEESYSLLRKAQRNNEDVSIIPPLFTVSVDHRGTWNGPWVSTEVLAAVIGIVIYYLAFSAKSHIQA

For assay [2], the target named is T2, AEA-DA lipid probe targets in Neuro2a cells (Mus musculus, UniProt Q3KNM2).
T2 sequence (Q3KNM2 1-278): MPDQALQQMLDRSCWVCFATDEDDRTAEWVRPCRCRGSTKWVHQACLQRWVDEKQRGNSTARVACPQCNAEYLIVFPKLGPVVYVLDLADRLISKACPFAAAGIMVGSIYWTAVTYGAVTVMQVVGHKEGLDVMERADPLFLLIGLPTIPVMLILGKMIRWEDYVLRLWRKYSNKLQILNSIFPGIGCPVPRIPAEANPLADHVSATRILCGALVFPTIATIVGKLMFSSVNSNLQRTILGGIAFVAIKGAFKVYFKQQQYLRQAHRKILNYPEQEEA
The settings on record: for SILAC ratio, MARCH5 (Q3KNM2): Neuro2a cells, AEA-DA probe.

Assay [3] deals with T3, AEA-DA lipid probe targets in Neuro2a cells (Mus musculus, UniProt Q9Z2Z6).
T3 sequence (Q9Z2Z6 1-301): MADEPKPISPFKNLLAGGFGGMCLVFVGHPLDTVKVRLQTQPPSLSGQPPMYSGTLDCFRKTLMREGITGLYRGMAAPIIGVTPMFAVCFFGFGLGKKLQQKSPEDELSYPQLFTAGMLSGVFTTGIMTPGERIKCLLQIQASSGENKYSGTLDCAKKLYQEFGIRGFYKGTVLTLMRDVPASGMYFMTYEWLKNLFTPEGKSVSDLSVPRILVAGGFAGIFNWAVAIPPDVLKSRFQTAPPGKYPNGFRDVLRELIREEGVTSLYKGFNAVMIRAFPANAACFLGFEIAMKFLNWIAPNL

In assay [4] the target is T4, endogenous FAAH in Neuro2a lysates (Mus musculus, UniProt O08914).
T4 construct: endogenous in cells; host or cells: Neuro2a membrane fraction
T4 sequence (O08914 1-579): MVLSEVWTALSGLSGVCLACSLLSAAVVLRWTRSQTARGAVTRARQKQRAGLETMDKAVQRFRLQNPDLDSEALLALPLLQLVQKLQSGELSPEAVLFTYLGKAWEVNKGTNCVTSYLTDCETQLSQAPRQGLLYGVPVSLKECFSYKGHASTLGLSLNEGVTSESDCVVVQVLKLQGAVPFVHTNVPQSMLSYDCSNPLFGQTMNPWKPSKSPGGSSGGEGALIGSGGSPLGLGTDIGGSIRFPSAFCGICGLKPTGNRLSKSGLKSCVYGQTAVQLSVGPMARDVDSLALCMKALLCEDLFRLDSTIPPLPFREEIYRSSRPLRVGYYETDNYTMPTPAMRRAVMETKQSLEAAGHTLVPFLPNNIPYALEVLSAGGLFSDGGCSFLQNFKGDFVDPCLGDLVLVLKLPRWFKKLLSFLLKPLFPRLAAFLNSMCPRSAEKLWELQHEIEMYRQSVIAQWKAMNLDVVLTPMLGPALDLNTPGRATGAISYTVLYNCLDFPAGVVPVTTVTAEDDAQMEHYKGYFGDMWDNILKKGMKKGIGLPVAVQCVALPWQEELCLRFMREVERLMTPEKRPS
In words: FAAH activity by AEA hydrolysis in Neuro2a lysates. The format is biochemical. As to conditions: for IC50: read-out: IC50 against endogenous FAAH in Neuro2a lysates; for inhibition of FAAH activity in Neuro2a lysates: up to 250 μM. The method, then: FAAH activity was measured by AEA hydrolysis: The membrane fraction of Neuro2a lysates (200 μL, 2.0 mg/mL) was incubated with DMSO or the test compound (1.0-250 μM) at 37° C. After 15 min, AEA-d8 (25 μM) was added and the samples were incubated for an additional 30 min and then quenched by the addition of two volumes of CHCl3:MeOH (2:1) containing pentadecanoic acid (PDA) (1.0 nmol) as an internal standard. After centrifuging (2,000×g, 5 min, 4° C.) to separate the organic and aqueous layers, the lower organic layer was transferred to a clean vial and analyzed by LC/MS as previously described. (Long et al., 2009) Pure humanized rat FAAH (Mileni et al., 2008) (5.0 ng/μL) was assayed in the same manner. Product levels were quantified by determining peak areas in relation to PDA.

Read-outs that look alike come from different tables or passages of the source.

`C=CCN(C)CCCCCCOc1ccc(C(=O)c2ccc(Br)cc2)c(F)c1` [Ro 48-8071, reference compound]: the “SILAC ratio, Ssr4” value in assay [1] (competitor 25 μM) turned out to be 1.2. In assay [2] (competitor 25 μM), the “SILAC ratio, MARCH5 (Q3KNM2)” value is on record as 1.1 and the “SILAC ratio, March5” value came to 1.1. For the same compound, the “SILAC ratio Slc25a20” value in assay [3] (competitor 25 μM) is 1.2.
By IC50 is commonly meant the concentration at which inhibition is half-maximal. For the compound `CN1CCN(C(=O)c2[nH]c3ccc([N+](=O)[O-])cc3c2-c2ccccc2)CC1` [MJN228, (4-Methylpiperazin-1-yl)(5-nitro-3-phenyl-1H-indol-2-yl)methanone], the IC50 in assay [4] is above 100 µM. In addition, in assay [4], the “inhibition of FAAH activity in Neuro2a lysates” value was “minimal inhibition”. Further, the “SILAC ratio, Ssr4” value in assay [1] (competitor 10 μM) was found to be 1.5; in assay [1] (competitor 25 μM) it was 1.9; in assay [1] (competitor 50 μM), 2.4; in assay [1] (competitor 100 μM), 2.6. The “SILAC ratio, MARCH5 (Q3KNM2)” value in assay [2] (competitor 25 μM) came to 1.1. Further, the “SILAC ratio, March5” value in assay [2] (competitor 10 μM) was determined as 1.1; in assay [2] (competitor 25 μM), 1.1; in assay [2] (competitor 50 μM), 1.0; in assay [2] (competitor 100 μM), 1.1. Also, the “SILAC ratio Slc25a20” value in assay [3] (competitor 10 μM) was found to be 1.4; in assay [3] (competitor 25 μM) it was 1.4; in assay [3] (competitor 50 μM), 2.4; in assay [3] (competitor 100 μM), 3.4.
Regarding `CCCCC/C=C\C/C=C\C/C=C\C/C=C\CCCC(=O)NCCO` [AEA, anandamide, reference compound], in assay [1] (competitor 200 μM), the “SILAC ratio, Ssr4” value stood at 1.8. In assay [3] (competitor 200 μM), the “SILAC ratio Slc25a20” value is on record as 1.6.
Regarding `CN1CCN(C(=O)c2c(-c3ccccc3)c3cc([N+](=O)[O-])ccc3n2C)CC1` [KML110, (1-Methyl-5-nitro-3-phenyl-1H-indol-2-yl)(4-methylpiperazin-1-yl)methanone], in assay [4], the IC50 was above 100 µM and the “inhibition of FAAH activity in Neuro2a lysates” value is “minimal inhibition”. Besides, the “SILAC ratio, Ssr4” value in assay [1] (competitor 25 μM) was 1.5. The “SILAC ratio, March5” value in assay [2] (competitor 25 μM) was determined as 1.5. Further, the “SILAC ratio Slc25a20” value in assay [3] (competitor 25 μM) is on record as 1.5.
`O=C(/C=C/c1cccnc1)NCCCCC1CCN(C(=O)c2ccccc2)CC1` [FK-866, reference compound]: the “SILAC ratio, Ssr4” value in assay [1] (competitor 25 μM) is recorded as 1.2. Further, in assay [2] (competitor 25 μM), the “SILAC ratio, MARCH5 (Q3KNM2)” value is 1.3 and the “SILAC ratio, March5” value turned out to be 1.3. Further, the “SILAC ratio Slc25a20” value in assay [3] (competitor 25 μM) is reported as 1.4.
